Data: PubChem BioAssay AID2060498 (Molecular Pharmacology Branch, DTP, NCI, 2025)

Tested on: 171881-019-R-J1-PDC tumor spheroids, viability
Experiment: Anticancer human tumor 171881-019-R-J1-PDC patient-derived invasive breast carcinoma cell line growth inhibition [GQUAD]
Conditions: spheroids with HUVEC and MSC; for IC50: curve of first compound; for viability, T/C: stronger effect = lower value
How it was run: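 Multi-cell-type spheroids of tumor cells with HUVEC and mesenchymal stem cells, treated with drug combinations. Concentrations descend in half-log steps from near clinical Cmax, or from 10 microM where Cmax is unknown; viability read-out.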

[1] = second compound 0.0316 µM, first compound 0.0316 µM
[2] = second compound 0.0316 µM, first compound 0.316 µM
[3] = second compound 0.1 µM, first compound 0.0316 µM
[4] = second compound 0.1 µM, first compound 0.316 µM
[5] = second compound 0.316 µM, first compound 0.0316 µM
[6] = second compound 0.316 µM, first compound 0.316 µM
[7] = second compound 1 µM, first compound 0.0316 µM
[8] = second compound 1 µM, first compound 0.316 µM
[9] = second compound 3.16 µM, first compound 0.0316 µM
[10] = second compound 3.16 µM, first compound 0.316 µM
[11] = second compound 10 µM, first compound 0.0316 µM
[12] = second compound 10 µM, first compound 0.316 µM
[13] = second compound 0.0316 µM, first compound 0.1 µM
[14] = second compound 0.0316 µM, first compound 1 µM
[15] = second compound 0.0316 µM, first compound 3.16 µM
[16] = second compound 0.0316 µM, first compound 10 µM
[17] = second compound 0.1 µM, first compound 0.1 µM
[18] = second compound 0.1 µM, first compound 1 µM
[19] = second compound 0.1 µM, first compound 3.16 µM
[20] = second compound 0.1 µM, first compound 10 µM
[21] = second compound 0.316 µM, first compound 0.1 µM
[22] = second compound 0.316 µM, first compound 1 µM
[23] = second compound 0.316 µM, first compound 3.16 µM
[24] = second compound 0.316 µM, first compound 10 µM
[25] = second compound 1 µM, first compound 0.1 µM
[26] = second compound 1 µM, first compound 1 µM
[27] = second compound 1 µM, first compound 3.16 µM
[28] = second compound 1 µM, first compound 10 µM
[29] = second compound 3.16 µM, first compound 0.1 µM
[30] = second compound 3.16 µM, first compound 1 µM
[31] = second compound 3.16 µM, first compound 3.16 µM
[32] = second compound 3.16 µM, first compound 10 µM
[33] = second compound 10 µM, first compound 0.1 µM
[34] = second compound 10 µM, first compound 1 µM
[35] = second compound 10 µM, first compound 3.16 µM
[36] = second compound 10 µM, first compound 10 µM
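Further: spheroids exposed to compounds for 7 days.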
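Wherever viability, T/C is given: 100% = DMSO vehicle control viability.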

`Cc1[nH]c2ccccc2c1CCNCc1ccc(/C=C/C(=O)NO)cc1` + Cc1cnc(CNC(=O)c2c(=O)c3ccc(N4CCCN(C)CC4)nc3n3c2sc2ccccc23)cn1 gave an IC50 (second compound 0.0316 µM) of 43.3 nM, an IC50 (second compound 0.1 µM) of 47.5 nM and an IC50 (second compound 0.316 µM) of 43.4 nM. For the same compound, the IC50 (second compound 1 µM) was 46 nM, the IC50 (second compound 3.16 µM) was 37.2 nM and the IC50 (second compound 10 µM) was 37.6 nM. It also gave a viability, T/C (second compound 0.0316 µM, first compound 0.000999 µM) of 108%, a viability, T/C (second compound 0.0316 µM, first compound 0.00316 µM) of 89.9% and a viability, T/C (second compound 0.0316 µM, first compound 0.00999 µM) of 81.7%. For the same compound, the viability, T/C [1] was 61.3%, the viability, T/C (second compound 0.0316 µM, first compound 0.0999 µM) was 26.1% and the viability, T/C [2] was 0.61%. The viability, T/C (second compound 0.1 µM, first compound 0.000999 µM) was 89.1%, the viability, T/C (second compound 0.1 µM, first compound 0.00316 µM) was 75.4% and the viability, T/C (second compound 0.1 µM, first compound 0.00999 µM) was 69.1%. The viability, T/C [3] was 66.9%, the viability, T/C (second compound 0.1 µM, first compound 0.0999 µM) was 24.9% and the viability, T/C [4] was 0.91%. For the same compound, the viability, T/C (second compound 0.316 µM, first compound 0.000999 µM) was 75.3%, the viability, T/C (second compound 0.316 µM, first compound 0.00316 µM) was 71.1% and the viability, T/C (second compound 0.316 µM, first compound 0.00999 µM) was 71.2%. It also gave a viability, T/C [5] of 58.9%, a viability, T/C (second compound 0.316 µM, first compound 0.0999 µM) of 26.6% and a viability, T/C [6] of 0.83%. The viability, T/C (second compound 1 µM, first compound 0.000999 µM) was 71.9%, the viability, T/C (second compound 1 µM, first compound 0.00316 µM) was 61.2% and the viability, T/C (second compound 1 µM, first compound 0.00999 µM) was 64%. It also gave a viability, T/C [7] of 62.9%, a viability, T/C (second compound 1 µM, first compound 0.0999 µM) of 23.4% and a viability, T/C [8] of 0.22%. It also gave a viability, T/C (second compound 3.16 µM, first compound 0.000999 µM) of 60.9%, a viability, T/C (second compound 3.16 µM, first compound 0.00316 µM) of 57.4% and a viability, T/C (second compound 3.16 µM, first compound 0.00999 µM) of 67.8%. It also gave a viability, T/C [9] of 55.9%, a viability, T/C (second compound 3.16 µM, first compound 0.0999 µM) of 12.2% and a viability, T/C [10] of 0.93%. The viability, T/C (second compound 10 µM, first compound 0.000999 µM) was 57.4%, the viability, T/C (second compound 10 µM, first compound 0.00316 µM) was 61.3% and the viability, T/C (second compound 10 µM, first compound 0.00999 µM) was 57.1%. For the same compound, the viability, T/C [11] was 58.1%, the viability, T/C (second compound 10 µM, first compound 0.0999 µM) was 3.88% and the viability, T/C [12] was 0.37%.

`O=C(NO)c1cnc(N2CCN(S(=O)(=O)c3ccc4ccccc4c3)CC2)nc1` + Cc1cnc(CNC(=O)c2c(=O)c3ccc(N4CCCN(C)CC4)nc3n3c2sc2ccccc23)cn1 gave an IC50 (second compound 0.0316 µM) of 167 nM, an IC50 (second compound 0.1 µM) of 194 nM and an IC50 (second compound 0.316 µM) of 160 nM. It also gave an IC50 (second compound 1 µM) of 148 nM, an IC50 (second compound 3.16 µM) of 118 nM and an IC50 (second compound 10 µM) of 111 nM. The viability, T/C [1] was 81.5%, the viability, T/C [13] was 60.9% and the viability, T/C [2] was 36.3%. It also gave a viability, T/C [14] of 2.76%, a viability, T/C [15] of 0.43% and a viability, T/C [16] of 0.3%. It also gave a viability, T/C [3] of 75.5%, a viability, T/C [17] of 68.2% and a viability, T/C [4] of 36.2%. The viability, T/C [18] was 2.32%, the viability, T/C [19] was 0.07% and the viability, T/C [20] was 0.41%. For the same compound, the viability, T/C [5] was 60.8%, the viability, T/C [21] was 61.7% and the viability, T/C [6] was 33.8%. For the same compound, the viability, T/C [22] was 1.48%, the viability, T/C [23] was 0.32% and the viability, T/C [24] was 0.45%. For the same compound, the viability, T/C [7] was 67%, the viability, T/C [25] was 57.1% and the viability, T/C [8] was 32.3%. It also gave a viability, T/C [26] of 0.14%, a viability, T/C [27] of 0.48% and a viability, T/C [28] of 0.09%. It also gave a viability, T/C [9] of 60%, a viability, T/C [29] of 51.9% and a viability, T/C [10] of 27.6%. It also gave a viability, T/C [30] of 0.22%, a viability, T/C [31] of 0.63% and a viability, T/C [32] of 0.36%. For the same compound, the viability, T/C [11] was 52.8%, the viability, T/C [33] was 52.5% and the viability, T/C [12] was 23.7%. The viability, T/C [34] was 0.3%, the viability, T/C [35] was 0.83% and the viability, T/C [36] was 0.13%.

`O=c1[nH]cc(F)c(=O)[nH]1` + Cc1cnc(CNC(=O)c2c(=O)c3ccc(N4CCCN(C)CC4)nc3n3c2sc2ccccc23)cn1 gave an IC50 (second compound 0.0316 µM) greater than 10000 nM, an IC50 (second compound 0.1 µM) greater than 10000 nM and an IC50 (second compound 0.316 µM) greater than 10000 nM. It also gave an IC50 (second compound 1 µM) greater than 10000 nM, an IC50 (second compound 3.16 µM) greater than 10000 nM and an IC50 (second compound 10 µM) greater than 10000 nM. For the same compound, the viability, T/C [1] was 80.2%, the viability, T/C [13] was 69.5% and the viability, T/C [2] was 57.5%. The viability, T/C [14] was 57.4%, the viability, T/C [15] was 54.5% and the viability, T/C [16] was 57%. For the same compound, the viability, T/C [3] was 77.7%, the viability, T/C [17] was 67.7% and the viability, T/C [4] was 62.2%. It also gave a viability, T/C [18] of 58.3%, a viability, T/C [19] of 59.4% and a viability, T/C [20] of 60.4%. For the same compound, the viability, T/C [5] was 68.9%, the viability, T/C [21] was 71.2% and the viability, T/C [6] was 65.6%. It also gave a viability, T/C [22] of 58.7%, a viability, T/C [23] of 65.2% and a viability, T/C [24] of 59.4%. For the same compound, the viability, T/C [7] was 67.7%, the viability, T/C [25] was 60.6% and the viability, T/C [8] was 65.5%. The viability, T/C [26] was 60.2%, the viability, T/C [27] was 66.2% and the viability, T/C [28] was 63.1%. For the same compound, the viability, T/C [9] was 65%, the viability, T/C [29] was 59.6% and the viability, T/C [10] was 58.9%. For the same compound, the viability, T/C [30] was 55.5%, the viability, T/C [31] was 65% and the viability, T/C [32] was 62.3%. The viability, T/C [11] was 59.1%, the viability, T/C [33] was 59.6% and the viability, T/C [12] was 55.1%. It also gave a viability, T/C [34] of 57.7%, a viability, T/C [35] of 61.5% and a viability, T/C [36] of 54%.
